Measured values from publication PMC10818546, “CYP1-Activation and Anticancer Properties of Synthetic Methoxylated Resveratrol Analogues” (Molecules, 2024).

System: MCF7 (TCDD)
Assay: MTT cytotoxicity assay, TCDD-induced MCF7 cells
Type: cell-based, human
Conditions: Homo sapiens, MCF7, MTT assay, 96 h incubation; cells induced with 10 nM TCDD for 24 h; read-out: IC50 MCF7 (TCDD)
Description: (§1) The antiproliferative activity of the resveratrol analogues was investigated using a human breast cell line panel, which has been characterised for CYP1 expression in our laboratories. IC50 values for both cis- and trans-isomers were determined using a standard 3-[4,5-dimethylthiazol-2-yl]-2,5-diphenyl tetrazolium bromide (MTT) cell viability assay and are shown in Table 1 (trans-stilbene analogues) and Table 2 (cis-stilbene analogues).
(§2) MCF7 cells are both ER positive and Ah receptor positive and have been well documented for their CYP1 expression, and it is known that treatment with TCDD elevates CYP1A1 and CYP1B1 expression. The cells were treated with DMSO (0.1%) for 24 h for constitutive expression, whereas for inducible CYP1 expression, the cells were treated with TCDD (10 nM) for 24 h.
(§3) A standard MTT (3-[4,5-dimethylthiazol-2-yl]-2,5-diphenyl tetrazolium bromide) cell viability assay was employed to evaluate the cytotoxicity of the stilbenes prepared. The MTT assay is a rapid quantitative spectrophotometric method for determining cell growth (viability) due to necrosis or apoptosis in monolayer-cultured cell lines in response to external factors. It is widely employed to evaluate the cytotoxicity of potential medicinal agents.
(§4) MCF7 cells were grown in RPMI-1640 medium with phenol red and 10% (v/v) heat-inactivated (heated to 56 °C for 45 min) foetal calf serum. MDA-468 cells were grown in RPMI-1640 medium with 10% (v/v) heat-inactivated foetal calf serum and L-glutamine (2 mM) without phenol red. MCF-10A cells were grown in Dulbecco’s modified Eagle’s medium/ Ham’s F-12 medium (1:1) with 5% (v/v) heat-inactivated foetal calf serum, epidermal growth factor (20 ng/mL), insulin ([…]) and hydrocortisone (500 ng/mL). Cells were maintained at 37 °C, 5% CO2/95% air with 100% humidity and passaged every 2–3 days using trypsin EDTA solution (0.25% w/v). Adhered cells at sub confluence were harvested for experimental use.
(§5) Aliquots of cell suspensions (100 µL at 2 × 10^3 cells per ml) were dispensed into sterile 96-well microtiter flat-bottomed plates. For the MDA468 and MCF10A cell lines, the plates were incubated at 37 °C, 5% CO2/95% air with 100% humidity for 24 h prior to the addition of test compounds. For MCF7 cells, after allowing approximately 4 h for cells to adhere, 100 µL of medium containing TCDD (from 100 mM stock in DMSO) or medium with 0.2% (v/v) DMSO was added to give a final concentration of 10 nM TCDD and 0.1% (v/v) DMSO. After 24 h, the medium was aspirated and replaced with fresh medium (100 µL) before the addition of test compounds.
(§6) Then, 100 µL aliquots of test compounds were added within 30 min into the wells from a 100 mM stock solution in DMSO and serially diluted to give final concentrations of […], 0.01, 0.003, 0.001 and 0.0003 µM. […] The cells were allowed to grow for 96 h at 5% CO2, 37 °C, to give 80–90% confluence in the control wells, after which 50 µL of 2 mg/mL MTT (final concentration 0.4 mg/mL) in sterile phosphate buffer was added to each well and the plates were further incubated for 2 h. All medium was aspirated and the formazan precipitate generated by viable cells was solubilised by 150 µL of DMSO. All the plates were vortexed and the absorbance at 540 nm was determined using a SpectraMax M5 plate reader (Molecular Devices, Wokingham, UK).
(§7) Results were expressed as a percentage of the control value versus the negative logarithm of the molar drug concentration range using GraphPad Prism (Version 5.00). Relative toxicities of each compound within each cell line were expressed as 50% of growth inhibition (IC50). All determinations were carried out in quadruplicate.

Row | Structure (SMILES) | IC50 [µM]
1 | COc1cc(/C=C\c2ccccc2)cc(OC)c1OC [DMU508] | 4
2 | COc1ccc(/C=C/c2cc(OC)c(OC)c(OC)c2)cc1OC [DMU2417] | 14
3 | COc1ccc(C=Cc2cc(OC)c(OC)c(OC)c2)cc1O [DMU214, 3,4,5,4′-tetramethoxy-3′-hydroxy stilbene] | 0.11
4 | COc1cc(C=Cc2ccc(O)c(O)c2)cc(OC)c1OC [DMU283, 3,4,5-trimethoxy-3′,4′-dihydroxy stilbene] | 0.14
5 | COc1cc(/C=C/c2ccc3c(c2)OCO3)cc(OC)c1OC [DMU220] | 2.3

System: MDA468
Assay: MTT cytotoxicity assay, MDA468 cells
Type: cell-based, human
Conditions: Homo sapiens; MTT assay, 96 h incubation; read-out: IC50 MDA468
Description: as §1
MDA468 cells represent an aggressive multi-drug-resistant tumour type and are ER negative but are aryl hydrocarbon (Ah) receptor positive in the presence of TCDD [46].
as §3, §4, §5, §6, §7

Row | Structure (SMILES) | IC50 [µM]
6 | COc1cc(/C=C\c2ccccc2)cc(OC)c1OC [DMU508] | 9
7 | COc1ccc(/C=C/c2cc(OC)c(OC)c(OC)c2)cc1OC [DMU2417] | 9
8 | COc1ccc(C=Cc2cc(OC)c(OC)c(OC)c2)cc1O [DMU214, 3,4,5,4′-tetramethoxy-3′-hydroxy stilbene] | 0.05
9 | COc1cc(C=Cc2ccc(O)c(O)c2)cc(OC)c1OC [DMU283, 3,4,5-trimethoxy-3′,4′-dihydroxy stilbene] | 0.05
10 | COc1cc(/C=C/c2ccc3c(c2)OCO3)cc(OC)c1OC [DMU220] | 0.99

Same assay, conditions: ratio of IC50 values

Row | Structure (SMILES) | TS = tumour selectivity = IC50 MCF10A/IC50 MDA468
11 | COc1cc(/C=C\c2ccccc2)cc(OC)c1OC [DMU508] | 0.9
12 | COc1ccc(/C=C/c2cc(OC)c(OC)c(OC)c2)cc1OC [DMU2417] | 2
13 | COc1ccc(C=Cc2cc(OC)c(OC)c(OC)c2)cc1O [DMU214, 3,4,5,4′-tetramethoxy-3′-hydroxy stilbene] | 1
14 | COc1cc(C=Cc2ccc(O)c(O)c2)cc(OC)c1OC [DMU283, 3,4,5-trimethoxy-3′,4′-dihydroxy stilbene] | 0.16
15 | COc1cc(/C=C/c2ccc3c(c2)OCO3)cc(OC)c1OC [DMU220] | four

Same assay, conditions: ratio of IC50 values; listed as 220

Row | Structure (SMILES) | TS = tumour selectivity = IC50 MCF10A/IC50 MDA468
16 | COc1cc(/C=C/c2ccc3c(c2)OCO3)cc(OC)c1OC [DMU220] | 4

System: MCF7
Assay: MTT cytotoxicity assay, MCF7 cells (uninduced)
Type: cell-based, human
Conditions: Homo sapiens, MCF7, 96 h, MTT assay, 96 h incubation, 37 °C, means of quadruplicate; read-out: IC50 MCF7
Description: as §1, §2, §3, §4, §5, §6, §7

Row | Structure (SMILES) | IC50 [µM]
17 | COc1cc(/C=C\c2ccccc2)cc(OC)c1OC [DMU508] | 5
18 | COc1ccc(/C=C/c2cc(OC)c(OC)c(OC)c2)cc1OC [DMU2417] | 14
19 | COc1ccc(C=Cc2cc(OC)c(OC)c(OC)c2)cc1O [DMU214, 3,4,5,4′-tetramethoxy-3′-hydroxy stilbene] | 0.06
20 | COc1cc(C=Cc2ccc(O)c(O)c2)cc(OC)c1OC [DMU283, 3,4,5-trimethoxy-3′,4′-dihydroxy stilbene] | 0.02

Same assay, conditions: Homo sapiens, MCF7; MTT assay, 96 h incubation, 37 °C, means of quadruplicate; read-out: IC50 MCF7

Row | Structure (SMILES) | IC50 [µM]
21 | COc1cc(/C=C/c2ccc3c(c2)OCO3)cc(OC)c1OC [DMU220] | 3.4

System: MCF10A
Assay: MTT cytotoxicity assay, MCF10A non-tumour control cells
Type: cell-based
Conditions: Homo sapiens, MCF-10A, 96 h, MTT assay, 96 h incubation, non-tumour control cells; read-out: IC50 MCF10A
Description: as §1
MCF10A cells are non-tumourigenic human mammary epithelial in origin which have been spontaneously immortalised without chemical intervention. CYP1 activity in MCF10A cells is negligible. […] Thus, MCF10A cell line is commonly used as a control in cytotoxicity assays.
as §3, §4, §5, §6, §7

Row | Structure (SMILES) | IC50 [µM]
22 | COc1cc(/C=C\c2ccccc2)cc(OC)c1OC [DMU508] | 7
23 | COc1ccc(/C=C/c2cc(OC)c(OC)c(OC)c2)cc1OC [DMU2417] | 18
24 | COc1ccc(C=Cc2cc(OC)c(OC)c(OC)c2)cc1O [DMU214, 3,4,5,4′-tetramethoxy-3′-hydroxy stilbene] | 0.05
25 | COc1cc(C=Cc2ccc(O)c(O)c2)cc(OC)c1OC [DMU283, 3,4,5-trimethoxy-3′,4′-dihydroxy stilbene] | 0.008

Same assay, conditions: Homo sapiens, MCF-10A; MTT assay, 96 h incubation, non-tumour control cells; read-out: IC50 MCF10A

Row | Structure (SMILES) | IC50 [µM]
26 | COc1cc(/C=C/c2ccc3c(c2)OCO3)cc(OC)c1OC [DMU220] | 3.9

System: human breast cell line panel
Assay: MTT cytotoxicity assay, statements for all cell lines of the panel
Type: cell-based
Conditions: Homo sapiens; MCF7, MCF7 (TCDD), MCF10A, MDA468; summary of the text; read-out: IC50 for all cell lines tested
Description: as §1, §3, §4, §5, §6, §7

Row | Structure (SMILES) | IC50 [µM]
27 | COc1cc(/C=C\c2ccccc2)cc(OC)c1OC [DMU508] | 4 to 9
28 | COc1ccc(/C=C/c2cc(OC)c(OC)c(OC)c2)cc1OC [DMU2417] | > 9

Same assay, conditions: MCF7, MCF7 (TCDD), MCF10A, MDA468; summary of the text

Row | Structure (SMILES) | IC50 for all cell lines tested
29 | COc1ccc(C=Cc2cc(OC)c(OC)c(OC)c2)cc1O [DMU214, 3,4,5,4′-tetramethoxy-3′-hydroxy stilbene] | sub-micromolar IC50 values
30 | COc1cc(C=Cc2ccc(O)c(O)c2)cc(OC)c1OC [DMU283, 3,4,5-trimethoxy-3′,4′-dihydroxy stilbene] | sub-micromolar IC50 values
